# Calls of active or inactive are those of the source. The rule behind the calls is not given here.
# Assays:
# [1] = target: Proto-oncogene tyrosine-protein kinase Src (Homo sapiens, UniProt P12931); experiment: Inhibition of SRC (unknown origin); assay type: ADME
# [2] = Solubility in pH 2.0 solution
# [3] = tested on: HepG2; experiment: Toxicity in human HepG2 cells; assay type: cell-based
# [4] = Toxicity in human CRL-8155 cells; assay type: cell-based
# [5] = Inhibition of Cryptosporidium parvum CDPK1 assessed as reduction in ATP consumption using BioSyntide-2 substrate incubated for 90 mins by luciferase reporter gene assay
# [6] = Solubility in pH 6.5 solution
# [7] = Clearance in mouse at 25 mg/kg, po; assay type: ADME, organism-based; details: in vivo
# [8] = target: Voltage-gated inwardly rectifying potassium channel KCNH2 (Homo sapiens, UniProt Q12809); experiment: Inhibition of human ERG by thallium flux assay
# [9] = AUC in mouse at 25 mg/kg, po; assay type: ADME, organism-based; set-up: dose 25 mg/kg; details: in vivo
# [10] = in vivo; details: mouse, po, 25 mg/kg
# [11] = Half life in mouse at 25 mg/kg, po; details: in vivo
# [12] = Protein binding in mouse plasma by dialysis method
# [13] = tested on: Cryptosporidium parvum; experiment: Antimicrobial activity against nano-luciferase-expressing Cryptosporidium parvum infected in human HCT8 cells incubated for 72 hrs by luciferase reporter gene assay; assay type: functional, organism-based; details: HCT-8, 72 h
# [14] = in vivo; details: mouse, po, 25 mg/kg; remark: listed apart in the source
# [15] = Drug level in mouse fecus at 25 mg/kg, po; details: read-out: Drug uptake, in vivo
# [16] = Clearance in mouse at 10 mg/kg, po; assay type: ADME, organism-based; details: in vivo
# [17] = AUC in mouse at 10 mg/kg, po; assay type: ADME, organism-based; set-up: dose 10 mg/kg; details: in vivo
# [18] = tested on: Cryptosporidium parvum; experiment: Antimicrobial activity against nano-luciferase-expressing Cryptosporidium parvum infected in IFN-gamma KO B6.129S7-Ifngtm1Ts/J mouse assessed as log reduction of infection at 25 mg/kg, po QD for 5 days beginning on day 6 post infection relative untreated control; assay type: functional; details: time 5 day
# [19] = tested on: Cryptosporidium parvum; experiment: Antimicrobial activity against nano-luciferase-expressing Cryptosporidium parvum infected in IFN-gamma KO B6.129S7-Ifngtm1Ts/J mouse assessed as log reduction of infection at 60 mg/kg, po QD for 5 days beginning on day 6 post infection relative untreated control; details: time 5 day
# [20] = Protein binding in human plasma by dialysis method
# [21] = tested on: Cryptosporidium parvum; experiment: Antimicrobial activity against nano-luciferase-expressing Cryptosporidium parvum infected in IFN-gamma KO B6.129S7-Ifngtm1Ts/J mouse assessed as log reduction of infection at 10 mg/kg, po BID for 5 days beginning on day 6 post infection relative untreated control; assay type: functional, organism-based; details: time 5.0 day
# [22] = tested on: Cryptosporidium parvum; experiment: Antimicrobial activity against nano-luciferase-expressing Cryptosporidium parvum infected in IFN-gamma KO B6.129S7-Ifngtm1Ts/J mouse assessed as log reduction of infection at 20 mg/kg, po BID for 5 days beginning on day 6 post infection relative untreated control; assay type: functional, organism-based; details: time 5.0 day
# [23] = tested on: Cryptosporidium parvum; experiment: Antimicrobial activity against nano-luciferase-expressing Cryptosporidium parvum infected in IFN-gamma KO B6.129S7-Ifngtm1Ts/J mouse assessed as log reduction of infection at 30 mg/kg, po BID for 5 days beginning on day 6 post infection relative untreated control; assay type: functional, organism-based; details: time 5.0 day
# Sequence of Proto-oncogene tyrosine-protein kinase Src (P12931 2-536 limits assumed): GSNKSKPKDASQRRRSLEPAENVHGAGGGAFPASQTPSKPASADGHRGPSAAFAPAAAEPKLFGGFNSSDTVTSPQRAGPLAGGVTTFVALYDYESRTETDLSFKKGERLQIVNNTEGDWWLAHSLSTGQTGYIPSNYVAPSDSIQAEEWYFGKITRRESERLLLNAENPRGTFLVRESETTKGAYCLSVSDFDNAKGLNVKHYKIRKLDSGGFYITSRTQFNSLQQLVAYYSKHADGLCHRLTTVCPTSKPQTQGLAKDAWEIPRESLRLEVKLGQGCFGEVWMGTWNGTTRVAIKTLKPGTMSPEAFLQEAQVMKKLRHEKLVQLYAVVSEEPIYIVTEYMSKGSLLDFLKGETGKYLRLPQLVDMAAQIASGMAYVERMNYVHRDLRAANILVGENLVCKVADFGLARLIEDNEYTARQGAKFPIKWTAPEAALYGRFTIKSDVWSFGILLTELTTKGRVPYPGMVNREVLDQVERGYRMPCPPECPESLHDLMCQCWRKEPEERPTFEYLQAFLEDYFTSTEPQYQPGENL
# Sequence of Voltage-gated inwardly rectifying potassium channel KCNH2 (Q12809 whole entry): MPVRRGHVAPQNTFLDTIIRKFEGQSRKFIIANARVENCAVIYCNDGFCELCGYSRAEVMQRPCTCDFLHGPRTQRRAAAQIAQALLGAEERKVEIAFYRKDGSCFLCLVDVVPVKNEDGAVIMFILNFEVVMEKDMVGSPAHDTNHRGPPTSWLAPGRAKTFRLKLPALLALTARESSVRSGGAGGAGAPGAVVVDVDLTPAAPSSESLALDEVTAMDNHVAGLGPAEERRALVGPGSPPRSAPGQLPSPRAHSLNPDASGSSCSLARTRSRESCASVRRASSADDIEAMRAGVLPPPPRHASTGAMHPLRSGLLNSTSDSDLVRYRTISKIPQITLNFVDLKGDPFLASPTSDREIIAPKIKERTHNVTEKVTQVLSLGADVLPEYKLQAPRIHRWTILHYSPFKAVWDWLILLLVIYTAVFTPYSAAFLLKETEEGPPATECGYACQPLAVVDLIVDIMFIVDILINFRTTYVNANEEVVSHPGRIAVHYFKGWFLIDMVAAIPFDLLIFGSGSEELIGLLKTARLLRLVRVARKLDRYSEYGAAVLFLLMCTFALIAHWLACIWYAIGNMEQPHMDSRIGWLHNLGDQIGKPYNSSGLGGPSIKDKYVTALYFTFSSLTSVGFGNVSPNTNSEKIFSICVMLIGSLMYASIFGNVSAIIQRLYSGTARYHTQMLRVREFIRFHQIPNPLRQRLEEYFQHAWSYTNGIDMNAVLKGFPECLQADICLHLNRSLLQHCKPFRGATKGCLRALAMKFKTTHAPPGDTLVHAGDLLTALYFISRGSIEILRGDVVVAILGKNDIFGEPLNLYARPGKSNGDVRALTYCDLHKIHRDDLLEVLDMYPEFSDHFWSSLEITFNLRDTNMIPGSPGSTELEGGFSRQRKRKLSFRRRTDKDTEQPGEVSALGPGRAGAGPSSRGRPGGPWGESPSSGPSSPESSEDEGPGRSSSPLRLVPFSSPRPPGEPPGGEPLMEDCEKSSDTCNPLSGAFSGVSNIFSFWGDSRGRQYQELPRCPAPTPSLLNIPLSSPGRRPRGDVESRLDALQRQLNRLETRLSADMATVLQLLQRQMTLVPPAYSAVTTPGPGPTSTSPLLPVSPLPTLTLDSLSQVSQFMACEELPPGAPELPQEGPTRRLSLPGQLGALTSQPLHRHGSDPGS
SMILES,IC50 [1],solubility ([2]; buffer),Activity [3],Activity [4],IC50 [5],solubility ([6]; buffer),CL/F [7],AUC [9],concentration [15],further results
CC(C)(CO)n1nc(-c2cnc3cc(OC4CC4)ccc3c2)c(C(N)=O)c1N,> 10000 nM,89 µM,Non-Toxic,Non-Toxic,1.9 nM,44.2 µM,,,,
CC(CCO)n1nc(-c2ccc3nc(OC4CC4)ccc3c2)c(C(N)=O)c1N (stereo unspecified),> 10000 nM,,Non-Toxic,Non-Toxic,5.9 nM,,0.7 mL/min,1154.1 µmol·min/L,,IC50 [8]: > 30000 nM; solubility ([2]; pH 2.0 solution): > 100 µM; Cmax [10]: 8.5 µM; half-life [11]: 1.42 h; fraction unbound [12]: 0.23; EC50 [13]: 600 nM; Tmax [14]: 0.667 h; solubility ([6]; pH 6.5 solution): 98 µM
CC(C)(CCO)n1nc(-c2cnc3cc(OC4CC4)ccc3c2)c(C(N)=O)c1N,> 10000 nM,88.8 µM,Non-Toxic,Non-Toxic,3 nM,,,,,
CCOc1ccc2cc(-c3nn(C(C)(C)CCO)c(N)c3C(N)=O)ccc2n1,,,Non-Toxic,Non-Toxic,,,,,,
CCOc1ccc2cc(-c3nn(C(C)(C)CO)c(N)c3C(N)=O)cnc2c1,4700 nM,> 50 µM,Non-Toxic,Non-Toxic,4.1 nM,> 50 µM,1 mL/min,50798.1 µmol·min/L,2.9 µM,
CCOc1ccc2cc(-c3nn(CC(C)(C)CO)c(N)c3C(N)=O)ccc2n1,,,Non-Toxic,Non-Toxic,,,,,,CL/F [16]: 5.1 mL/min; AUC [17]: 140.2 µmol·min/L
CCOc1ccc2cc(-c3nn(C(C)(C)CO)c(N)c3C(N)=O)ccc2c1,> 10000 nM,18.8 µM,Non-Toxic,Non-Toxic,9 nM,8 µM,0.2 mL/min,9365 µmol·min/L,7.1 µM,log reduction [18]: 0.81
CC(C)(CCO)n1nc(-c2ccc3nc(OC4CC4)ccc3c2)c(C(N)=O)c1N,> 10000 nM,96 µM,Non-Toxic,Non-Toxic,2.3 nM,> 100 µM,6.7 mL/min,193.6 µmol·min/L,,
C#CCOc1ccc2cc(-c3nn(C(C)(C)C)c(N)c3C(N)=O)ccc2c1,,,Non-Toxic,Non-Toxic,,,,,,
CC(C)(CO)Cn1nc(-c2cnc3cc(OC4CC4)ccc3c2)c(C(N)=O)c1N,> 10000 nM,> 100 µM,Non-Toxic,Non-Toxic,0.1 nM,> 100 µM,,,,
CCOc1ccc2cc(-c3nn(C(C)CCO)c(N)c3C(N)=O)ccc2n1 (stereo unspecified),,,Non-Toxic,Non-Toxic,,,,,,
CCOc1ccc2cc(-c3nn(C(C)CCO)c(N)c3C(N)=O)cnc2c1 (stereo unspecified),3500 nM,78 µM,Non-Toxic,Non-Toxic,,> 100 µM,,,1.1 µM,CL/F [16]: 1.9 mL/min; AUC [17]: 339 µmol·min/L; PPB [12]: 86%; FC [19]: 3.41; PPB [20]: 84%
CC(C)(CO)Cn1nc(-c2ccc3nc(OC4CC4)ccc3c2)c(C(N)=O)c1N,,,Non-Toxic,Non-Toxic,,,,,,
CCOc1ccc2cc(-c3nn(CC(C)(C)CO)c(N)c3C(N)=O)cnc2c1,> 10000 nM,,Non-Toxic,Non-Toxic,,> 100 µM,,,,
CCOc1ccc2cc(-c3nn(C(C)(C)CO)c(N)c3C(N)=O)ccc2n1,> 10000 nM,> 100 µM,Non-Toxic,Non-Toxic,3.1 nM,> 100 µM,0.4 mL/min,11412.6 µmol·min/L,0.41 µM,Activity [21]: inactive; Activity [22]: inactive; PPB [12]: 80%; FC [19]: 3.15; PPB [20]: 84%
CC(CCO)n1nc(-c2cnc3cc(OC4CC4)ccc3c2)c(C(N)=O)c1N (stereo unspecified),> 10000 nM,,Non-Toxic,Non-Toxic,2 nM,,0.1 mL/min,11769 µmol·min/L,4.5 µM,IC50 [8]: > 30000 nM; solubility ([2]; pH 2.0 solution): > 100 µM; Cmax [10]: 69.2 µM; half-life [11]: 2.05 h; EC50 [13]: 430 nM; Tmax [14]: 0.5 h; solubility ([6]; pH 6.5 solution): > 100 µM; fraction unbound [20]: 0.49
CCOc1ccc2cc(-c3nn(C(C)CCO)c(N)c3C(N)=O)ccc2c1 (stereo unspecified),10000 nM,> 100 µM,Non-Toxic,Non-Toxic,2 nM,56.7 µM,0.8 mL/min,1738 µmol·min/L,,PPB [12]: 71%; Activity [23]: Active; FC [19]: 2.62; PPB [20]: 88%
CC(C)(CO)n1nc(-c2ccc3nc(OC4CC4)ccc3c2)c(C(N)=O)c1N,,,Non-Toxic,Non-Toxic,,,,,,
CCOc1ccc2cc(-c3nn(C(C)(C)CCO)c(N)c3C(N)=O)cnc2c1,2500 nM,87.9 µM,Non-Toxic,Non-Toxic,5.7 nM,> 100 µM,,,,
CC(C)(CCO)n1nc(-c2ccc3cc(OC4CC4)ccc3c2)c(C(N)=O)c1N,> 10000 nM,> 100 µM,Non-Toxic,Non-Toxic,3.8 nM,,1 mL/min,483.2 µmol·min/L,,
CCOc1ccc2cc(-c3nn(CC4CC4)c(N)c3C(N)=O)ccc2c1,10000 nM,,Non-Toxic,Non-Toxic,0.03 nM,,0.5 mL/min,2800.8 µmol·min/L,54 µM,log reduction [18]: 0.76; PPB [12]: 97%; PPB [20]: 95%
CCOc1ccc2cc(-c3nn(CC(C)(C)CO)c(N)c3C(N)=O)ccc2c1,6300 nM,> 100 µM,Non-Toxic,Non-Toxic,6.6 nM,20.6 µM,2.1 mL/min,621.1 µmol·min/L,7.6 µM,PPB [12]: 92%; FC [19]: -0.03; PPB [20]: 94%
CC(C)(CO)n1nc(-c2ccc3cc(OC4CC4)ccc3c2)c(C(N)=O)c1N,> 10000 nM,89 µM,Non-Toxic,Non-Toxic,6.9 nM,92.9 µM,0.3 mL/min,41782 µmol·min/L,3.5 µM,PPB [12]: 80%; FC [19]: 4.47
CC(CCO)n1nc(-c2ccc3cc(OC4CC4)ccc3c2)c(C(N)=O)c1N (stereo unspecified),> 10000 nM,> 100 µM,Non-Toxic,Non-Toxic,6 nM,> 100 µM,0.3 mL/min,4332.8 µmol·min/L,10.3 µM,PPB [12]: 95%; FC [19]: 4.78; PPB [20]: 95%

# — ChEMBL document CHEMBL4673226, “Development of 5-Aminopyrazole-4-carboxamide-based Bumped-Kinase Inhibitors for Cryptosporidiosis Therapy” (J Med Chem, 2019)
